Experimental data from US20120059038A1, “[…]” (Astellas Pharma Inc., priority 2009, published 2012).
Converted amounts (≈) assume the structure as drawn.

How the values were obtained:
[1] = tested on: dormantfungi present around infections; conditions: reported in Mycoses, 46, pp. 505-510, 2003; cited from earlier work
[2] = tested on: Alternaria alternata AHU9258; experiment: Antifungal activity, broth microdilution method; type: cell-based; conditions: minimum inhibitory concentration
Method: (§1) Antifungal activities for the following test fungi were determined by a broth microdilution method (Hikaru Kume and Toshikazu Yamazaki, Clinical Microbiology, Vol. 21, No. 5, pp. 573-580, 1994).

[3] = tested on: Aspergillus fumigatus FP1305; experiment: Antifungal activity, broth microdilution method; type: cell-based; conditions: minimum inhibitory concentration
Method: as §1

[4] = tested on: Cryptococcus neoformans FP1739; experiment: Antifungal activity, broth microdilution method; type: cell-based; conditions: minimum inhibitory concentration
Method: as §1

[5] = tested on: Trichophyton mentagrophytes FP2103; experiment: Antifungal activity, broth microdilution method; type: cell-based; conditions: minimum inhibitory concentration
Method: as §1

[6] = tested on: Trichophyton rubrum FP596; experiment: Antifungal activity, broth microdilution method; type: cell-based; conditions: minimum inhibitory concentration
Method: as §1

[7] = tested on: Complex III; experiment: Complex III inhibitory activity, ubiquinol-cytochrome c reductase assay using isolated mitochondrial fraction; type: biochemical; conditions: mitochondrial fraction of Trichophyton mentagrophytes FP2103; kind of value (IC50 or other) not stated
Method: A medium (0.1% glucose, 0.2% bacto tryptone, 0.2% K2HPO4, 0.005% MgSO4.7H2O and 0.005% CaC12.2H2O) was poured into an Erlenmeyer flask and sterilized by autoclaving. Conidiophores of Trichophyton mentagrophytes FP2103 were inoculated into the medium, and cultured at 30° C. for 40 hours while shaking on a rotary shaker. The fungus was collected from the cultural solution and dipped in a cell wall lysis enzyme solution {1 M KC1, 25 mM CaC12.2H2O, 10 mM MgC12.6H2O, 5 mg/mL zymolyase-100T (Seikagaku Corporation), 1 mg/mL chitinase (Sigma) and 5 mg/mL drieselase (Sigma)}, and the resulting mixture was stirred at 30° C. for 4 hours. The enzyme treatment solution was filtered through glass funnel filled with gauze to obtain protoplast. A mitochondrial fraction was isolated from the protoplast by using a Mitochondria Isolation Kit (BioChain Institute, Inc.). The Complex III inhibitory activity was measured in the ubiquinol-cytochrome c reductase assay using the isolated mitochondrial fraction (The Journal of Biological Chemistry, 279, pp. 8708-8714, 2004). As a result, the compound A inhibited the complex III at 0.9 ng/mL.

[8] = Cytotoxicity to EL-4 cells, cell counting kit; type: cell-based, mouse; conditions: mouse, EL-4 mouse T lymphoma cells, 37° C.
Method: (§2) Cytotoxicity was evaluated by adding a test drug to mouse T lymphoma cell line EL-4 at various concentrations, incubating the cells in a CO2 incubator at 37° C. for 72 hours, counting the cells using a cell counting kit (Wako Pure Chemical Industries, Ltd.), and calculating IC50 values.

[9] = tested on: mouse T lymphoma cell line EL-4; experiment: Cytotoxicity to EL-4 cells, cell counting kit; type: cell-based; conditions: 37° C., 72 hours
Method: as §2

SMILES | activity against dormant fungi [1] | MIC [2] [µg/mL] | MIC [3] [µg/mL] | MIC [4] [µg/mL] | MIC [5] [µg/mL] | MIC [6] [µg/mL] | concentration at which complex III was inhibited [7] [ng/mL] | IC50 at 72 h [8] [µg/mL] | concentrations showing no cytotoxic effect [9] [ng/mL]
CN(C/C=C/C#CC(C)(C)C)Cc1cccc2ccccc12 [Terbinafine] | weak activity |  |  |  |  |  |  |  | 
CCC(C)CC(C)CCC1CCCC(c2c(O)c(C3C(O)C(O)C(O)C3O)cn(C)c2=O)O1 (stereo not drawn) [compound A] |  | 6.3 (≈ 13.5 µM) | 25 (≈ 53.5 µM) | 1.3 (≈ 2.78 µM) | 0.1 (≈ 0.214 µM) | 0.1 (≈ 0.214 µM) | 0.9 | 6.2 (≈ 13.3 µM) | ≤ 3100
